Here are results for 48 compounds from patent US6365549B2, “Methods of blocking an ethylene response in plants using cyclopropene derivatives” (North Carolina State University, priority 1999, dated 2002).

What all share (type): in vivo
Test [1] has as its system Patio variety tomato seedlings. Description: Tomato epinasty test, volatile gas treatment. Conditions: ethylene 10 ppm v/v, scale of 0 to 10, 10 complete protection, 0 no protection. On the procedure: The test procedure is designed to determine the ability of an compound according to the present invention to block the epinastic growth response induced by ethylene in tomato plants when the compound is administered either as a volatile gas or as a component of a spray solution. Treatment chambers are of an appropriate size for the test plants and are airtight. Each is fitted with a reusable septum to be used for injection of ethylene. Test plants are Patio variety tomato seedlings planted two plants per three inch square plastic pot. Volatile gas treatment entails placing two pots of Patio var. tomatoes into a polystyrene 4.8 L volume treatment chamber along with one-half (upper or lower section) of a 50×9 mm plastic Petri dish containing a Gelman filter pad. The appropriate amount of experimental compound, dissolved in 1.0 ml acetone, is pipetted onto the filter pad and the chamber immediately sealed. Four hours later ethylene gas equal to 10 ppm v/v final concentration is injected into the sealed chamber. Sixteen hours later the chambers are opened in an exhaust hood, allowed to air and the plants scored visually for the degree of protection against ethylene-induced epinasty conferred by the experimental compound when compared to ethylene treated and untreated controls on a scale of 0 to 10. A rating of 10 means complete protection. A rating of 0 means no protection from the effects of ethylene.

The test system of test [2] is banana. Nature of the test: Time of protection (insensitivity to ethylene) of bananas, short-chain cyclopropenes. Conditions: saturating amount (at least 10 times minimum) for 24 hours, daily challenge with 333 μl/l ethylene 12-15 hours. On the procedure: To obtain the time of protection, bananas were exposed to a saturating amount of the compound for 24 hours (this was done as above and at least 10 times the minimum protection amount was used). After exposure, bananas were removed from the jars and each day individual bananas were exposed to 333 pill of ethylene for 12-15 hours. The day the bananas responded to ethylene was recorded as the protection time.

In test [3] the test system is banana. Description: Minimum concentration protecting bananas from 333 μl/l ethylene (short-chain cyclopropenes injected as gas). Conditions: 24 hours exposure to compound as gas in 3-liter jar, then 333 μl/l ethylene 12-15 hours, observed for ripening. The protocol:
To obtain the minimum concentration that protected bananas from 333 μl/l of ethylene, compounds described in U.S. Pat. No. 5,518,988 to Sisler et al. were applied to bananas according to the methods setforth herein. A known amount of an active compound was injected as a gas into a 3-liter jar containing a banana. The jar was sealed and the banana was removed after 24 hours. At the end of exposure, the banana was treated with 333 pill of ethylene in a 3-liter jar for 12-15 hours. It was then observed for ripening. The minimum concentration is the minimum concentration that protected the banana from 333 μl/l of ethylene. Ten microliters/liter of ethylene is usually considered to be a saturating amount.

Take `CCCCCCCCCC1=CC1` [Compound 24]: in test [1] (Gas 10 ppm), the “Protection against ethylene-induced epinasty, rating” value (“Protection” below) worked out at 9.5. As for `CCCCCCCCC1=C(CCCCCCCC(=O)OC)C1` [Compound 21, Methyl Sterculate], the entries for the “Protection” value in test [1] (Gas 10 ppm) and in test [1] (Gas 1000 ppm) were 5 and 9, respectively. `CCCCCCCC1=CC1` [Compound 26]: the “Protection” value in test [1] (Gas 10 ppm) came out at 10.

In the case of `OCCCCCCCC1=CC1` [Compound 5, 1-(7-Hydroxyheptyl)-cyclopropene], the figures for the “Protection” value in test [1] (Gas 10 ppm) and in test [1] (Gas 1000 ppm) were 0 and 10, respectively. For cyclopropene [cyclopropene (CP)], the “Time of Insensitivity” value with banana [2] was determined as 12 days. Also, the “Minimum Concentration” value in the test with banana [3] worked out at 0.7 nl/l. With `CC(=O)OCCCCCCCC1=CC1` [Compound 6, 1-(7-Acetoxyheptyl)-cyclopropene], the “Protection” value is 0 in test [1] (Gas 10 ppm) and 10 in test [1] (Gas 1000 ppm). Regarding `CON=C(C)CCCCCCC1=CC1` (single isomer, unassigned) [Compound 47, 8-Cycloprop-1-enyl-octan-2-one O-methyl Oxime], in test [1] (Gas 10 ppm), the “Protection” value turned out to be 9.5. As for `CC(CCC1=CC1)CC(C)(C)C` (centres unmarked) [Compound 35], the “Protection” value in test [1] (Gas 10 ppm) is 10. In the case of `CCCCC(CC)CCC1=CC1` (centres unmarked) [Compound 28], the “Protection” value in test [1] (Gas 10 ppm) worked out at 9. For the compound `CCCCCCCCCCCCCCC1=CC1` [Compound 42], the entries for the “Protection” value in test [1] (Gas 10 ppm) and in test [1] (Gas 1000 ppm) were 2 and 10, respectively. In the case of `CCOC(=O)CCCCCCC1=CC1` [Compound 9, 7-Cycloprop-1-enyl-heptanoic Acid Ethyl Ester], in test [1] (Gas 10 ppm), the “Protection” value came to 4. In the case of `CCCCCCCCCCCCCCCC1=CC1` [Compound 38], the “Protection” value in test [1] (Gas 10 ppm) is given as 4.5; in test [1] (Gas 1000 ppm) it was 10. As for `CCCCN(CCCC)CC1=CC1` [Compound 41], the “Protection” value came to 3 in test [1] (Gas 10 ppm) and 10 in test [1] (Gas 1000 ppm). For `CCCCCC1(CCCCC)C=C1` [Compound 16, 3,3-Dipentyl-cyclopropene] the same measures were 0 and 10.

For “1-Pentyloxyethyl-cyclopropene [Compound 15]”, the “Protection” value in test [1] (Gas 10 ppm) is given as 10. On the same count and under the same terms, then `CCCCCCCCCCCC1=CC1` [Compound 27], with 10. With `COCCOCCOCC1=CC1` [Compound 30], the “Protection” value in test [1] (Gas 10 ppm) amounted to 3; in test [1] (Gas 1000 ppm) it was 10. For `CCCCCCCCCCCCC1=CC1` [Compound 40], the “Protection” value amounted to 4 in test [1] (Gas 10 ppm) and 10 in test [1] (Gas 1000 ppm). For `CCN(CC)C(=O)CCCCCCC1=CC1` [Compound 48, 7-Cycloprop-1-enyl-heptanoic Acid Diethylamide], the “Protection” value worked out at 0 in test [1] (Gas 10 ppm) and 7 in test [1] (Gas 1000 ppm). On to `O=C(O)CCCCCCC1=CC1` [Compound 7, 7-Cycloprop-1-enyl-heptanoic Acid], for which the “Protection” value in test [1] (Gas 10 ppm) stood at 3; in test [1] (Gas 1000 ppm) it was 8. The matching figures for `CCC(=O)OCCC1=CC1` [Compound 33]: 0 and 10. The matching figures for `CCCCCCCCCCCCCC1=CC1` [Compound 29]: 3.5 and 10. As to “Hex-5-yne 2-octylcycloprop-2-ene-1-carboxylate [Compound 22]”, the “Protection” value in test [1] (Gas 10 ppm) is reported as 0; in test [1] (Gas 750 ppm), 9.

Turning to `CCCC1=CC1` [1-propylcyclopropene (1-PCP), 1-propylcyclopropene], the “Time of Insensitivity” value in the test with banana [2] was found to be 12 days. The “Minimum Concentration” value with banana [3] was determined as 6 nl/l. For `CC(=O)O.CCN(CC)CCCCCCCC1=CC1` [Compound 12, 1-(7-N,N,-Diethylammoniumheptyl)-cyclopropene Acetate], the results for the “Protection” value in test [1] (Gas 10 ppm) and in test [1] (Gas 1000 ppm) were 2 and 10, respectively.

As to `CCCCCC1=C(CCCCC)C1` [Compound 45], the “Protection” value in test [1] (Gas 10 ppm) was found to be 0; in test [1] (Gas 1000 ppm), 10. As for `CCCCCC#CCCCCC1=CC1` [Compound 4, 1-(Undec-5-ynl)-cyclopropene], the “Protection” value in test [1] (Gas 10 ppm) worked out at 10. For the compound `CCC=CCC1=C(CCCCC)C1` [Compound 17, 1-Pent-2-enyl-2-pentyl-cyclopropene], the “Protection” value in test [1] (Gas 10 ppm) worked out at 0; in test [1] (Gas 1000 ppm), 10. Take `CCN(CC)CCCCCCCC1=CC1` [Compound 11, 1-(7-N,N-Diethylaminoheptyl)-cyclopropene]: the “Protection” value in test [1] (Gas 10 ppm) was 3; in test [1] (Gas 1000 ppm), 10. Regarding `CC(=O)CCCCCCC1=CC1` [Compound 46, 8-Cycloprop-1-enyl-octan-2-one], the entries for the “Protection” value in test [1] (Gas 10 ppm) and in test [1] (Gas 1000 ppm) were 3 and 9, respectively. Regarding `CCCCC1=CC1` [1-butylcyclopropene (1-BCP), 1-butylcyclopropene], the “Time of Insensitivity” value in the test on banana [2] is on record as 12 days. In addition, in the test with banana [3], the “Minimum Concentration” value is 3 nl/l. For `CCCCCCC1=CC1CCCCCC` (centres unmarked) [Compound 44], the “Protection” value in test [1] (Gas 10 ppm) is recorded as 0; in test [1] (Gas 1000 ppm), 10. Regarding `C=CCCCCCCC1=CC1` [Compound 19, 1-(Oct-7-enyl)-cyclopropene], the “Protection” value in test [1] (Gas 10 ppm) turned out to be 10. `CCCCCCCCC1C=C1` [Compound 2, 3-Octylcyclopropene]: the “Protection” value worked out at 0 in test [1] (Gas 10 ppm) and 10 in test [1] (Gas 1000 ppm). With `CC[N+](C)(CC)CCCCCCCC1=CC1.[I-]` [Compound 13, 1-(7-N,N,N-Diethylmethylammoniumheptyl)-cyclopropene Iodide], the “Protection” value in test [1] (Gas 10 ppm) turned out to be 6. Take `FC(F)(F)CCCCC1=CC1` [Compound 37]: the “Protection” value in test [1] (Gas 10 ppm) turned out to be 10.

On to `N#CCCCCCCCC1=CC1` [Compound 10, 1-(7-Cyanoheptyl)-cyclopropene], for which the “Protection” value in test [1] (Gas 10 ppm) is listed as 2; in test [1] (Gas 1000 ppm), 10. Turning to “1-methylcyclopropene [1-methylcyclopropene (1-MCP)]”, in the test on banana [2], the “Time of Insensitivity” value stood at 12 days. Besides, in the test on banana [3], the “Minimum Concentration” value is 0.7 nl/l.

Consider `CC(C)N.O=C(O)CCCCCCC1=CC1` [Compound 8, 7-Cycloprop-1-enyl-heptanoic Acid Isopropylamine Salt], for which the “Protection” value in test [1] (Gas 10 ppm) came to 0; in test [1] (Gas 500 ppm), 8.

As for `CCCCCCOCC1=CC1` [Compound 14, 1-Hexyloxymethyl-cyclopropene], the “Protection” value in test [1] (Gas 10 ppm) amounted to 10. With `CCCCCC(C)CC1=CC1` (centres unmarked) [Compound 32], the “Protection” value in test [1] (Gas 10 ppm) is reported as 9.5. The same measure, in the same setting: then `COCCCCCCCC1=CC1` [Compound 3, 1-(7-Methoxyheptyl)-cyclopropene], with 9.5.

Consider `CCCCCCCCCCC1=CC1` [Compound 25], for which the “Protection” value in test [1] (Gas 10 ppm) is reported as 9. On the same count and under the same terms, under `CC(C)(C)CCC1=CC1` [Compound 43] stands 10.

For `CC(C)(O)CCC1=CC1` [Compound 20, 4-(1-Cyclopropenyl)-2-methylbutan-2-ol], the “Protection” value is reported as 0 in test [1] (Gas 10 ppm) and 8 in test [1] (Gas 1000 ppm). The matching figures for `CCC=CCC1=CC1(CCCCC)CCCCC` [Compound 18, 1-Pent-2-enyl-3,3-dipentyl-cyclopropene]: 0 and 10.

Turning to `CC(C)CCCCCC1=CC1` [Compound 34], in test [1] (Gas 10 ppm), the “Protection” value came out at 10. Still for that read-out and setting: under `CCCCCC1=CC1` [Compound 31] stands 10.
